Measurements: patent US9409966B2, “Glucagon-like peptide-1 derivatives and their pharmaceutical use” (priority 2007, dated 2016)
*1 amine or outer side, *2 acyl side, *3 side chain or, on linkers, in order; H or OH if unused. Where a SMILES comes first, the peptide text is derived from it. Side-chain parts run from the residue outwards. [ ]: non-standard residue; d: D form. The star is where a group is joined. C18 diacid = O=C(O)CCCCCCCCCCCCCCCCC(=O)*; γGlu = O=C(O)[C@H](CCC(=O)[*:2])N[*:1]; AEEA = NCCOCCOCC(=O)O; Aib = CC(C)(N)C(=O)O

Assays:
[1] = molecular target: human serum albumin (HSA) (Homo sapiens, UniProt P02768); test: Albumin binding affinity, competition scintillation proximity assay (SPA)
Description: Streptavidin-SPA beads (GE Healthcare RPNQ0009) were incubated with biotinylated HSA for 5 hours. The beads were washed with buffer to remove unbound HSA. […] After 20 hours of gentle rocking at room temperature the plates were centrifuged and counted on a TopCounter.

[2] = molecular target: T1, human GLP-1 receptor (Homo sapiens, UniProt P43220); test: Stimulation of cAMP formation in a cell line expressing the cloned human GLP-1 receptor; format: biochemical; settings: cAMP production, purified plasma membranes from BHK467-12A (tk-ts13), AlphaScreen cAMP Assay Kit; read-out: Potency [EC50/nM]
T1 construct: expressed in transfected cells; host or cells: BHK467-12A (tk-ts13) baby hamster kidney cells; purified plasma membranes
T1 sequence (P43220 24-463): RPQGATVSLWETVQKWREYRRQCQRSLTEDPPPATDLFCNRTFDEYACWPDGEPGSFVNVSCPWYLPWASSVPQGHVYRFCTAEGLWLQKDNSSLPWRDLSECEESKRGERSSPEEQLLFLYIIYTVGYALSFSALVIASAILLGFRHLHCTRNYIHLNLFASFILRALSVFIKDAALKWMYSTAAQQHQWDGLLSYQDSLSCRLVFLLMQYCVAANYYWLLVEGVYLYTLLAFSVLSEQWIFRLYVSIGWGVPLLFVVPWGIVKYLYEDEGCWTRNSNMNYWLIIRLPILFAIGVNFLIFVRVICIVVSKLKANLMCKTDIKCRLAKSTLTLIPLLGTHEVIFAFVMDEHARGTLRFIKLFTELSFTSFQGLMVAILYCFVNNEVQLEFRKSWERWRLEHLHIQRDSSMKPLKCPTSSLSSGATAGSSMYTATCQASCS
Description: A stable transfected cell line has been prepared at NN A/S, Denmark, and a high expressing clone was selected for screening. The cells were grown at 5% CO2 in DMEM, 5% FCS, 1% Pen/Strep (Penicillin/Streptomycin) and 0.5 mg/ml of the selection marker G418.
Cells at approximate 80% confluence were washed 2× with PBS (Phosphate Buffered Saline) and harvested with Versene (aqueous solution of the tetrasodium salt of ethylenediaminetetraacetic acid), centrifuged 5 min at 1000 rpm and the supernatant removed. The additional steps were all made on ice. […] Suspension in Buffer 2, homogenization and centrifugation was repeated once and the membranes were resuspended in Buffer 2 and ready for further analysis or stored at −80° C.
The functional receptor assay was carried out by measuring the peptide induced cAMP production by The AlphaScreen Technology. […] The capture of cAMP is achieved by using a specific antibody conjugated to acceptor beads. Formed cAMP was counted and measured at a AlphaFusion Microplate Analyzer. The EC50 values were calculated using the Graph-Pad Prisme software (version 5).

Sequence of human serum albumin (HSA) (P02768 25-609): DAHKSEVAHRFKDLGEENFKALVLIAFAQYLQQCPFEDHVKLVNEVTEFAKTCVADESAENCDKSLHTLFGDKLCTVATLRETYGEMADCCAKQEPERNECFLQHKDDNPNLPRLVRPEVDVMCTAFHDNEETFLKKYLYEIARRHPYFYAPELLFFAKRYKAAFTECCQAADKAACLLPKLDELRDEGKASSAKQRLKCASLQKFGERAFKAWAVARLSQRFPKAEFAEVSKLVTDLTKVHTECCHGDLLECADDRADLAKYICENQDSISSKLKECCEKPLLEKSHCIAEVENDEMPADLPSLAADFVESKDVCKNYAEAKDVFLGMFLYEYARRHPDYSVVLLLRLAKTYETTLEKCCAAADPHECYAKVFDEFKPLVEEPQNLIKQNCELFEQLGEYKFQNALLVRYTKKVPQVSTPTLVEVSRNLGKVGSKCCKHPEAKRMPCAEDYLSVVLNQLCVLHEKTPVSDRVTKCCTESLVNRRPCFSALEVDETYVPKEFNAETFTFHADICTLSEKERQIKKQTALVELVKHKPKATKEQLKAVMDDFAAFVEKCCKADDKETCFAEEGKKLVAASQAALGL

CC[C@H](C)[C@H](NC(=O)[C@H](Cc1ccccc1)NC(=O)[C@H](CCC(=O)O)NC(=O)[C@H](CCCNC(=N)N)NC(=O)[C@@H](NC(=O)[C@H](C)NC(=O)[C@H](CCC(N)=O)NC(=O)[C@H](CCC(=O)O)NC(=O)[C@H](CCC(=O)O)NC(=O)[C@H](CCCCN)NC(=O)[C@H](Cc1ccc(O)cc1)NC(=O)[C@H](CO)NC(=O)[C@H](CO)NC(=O)[C@@H](NC(=O)[C@H](CC(=O)O)NC(=O)[C@H](CO)NC(=O)[C@@H](NC(=O)[C@H](Cc1ccccc1)NC(=O)[C@@H](NC(=O)CNC(=O)[C@H](CCC(=O)O)NC(=O)C(C)(C)NC(=O)[C@@H](N)Cc1c[nH]cn1)[C@@H](C)O)[C@@H](C)O)C(C)C)C(C)C)C(=O)N[C@@H](C)C(=O)N[C@@H](CCCCNC(=O)COCCOCCNC(=O)COCCOCCNC(=O)CC[C@H](NC(=O)CCCCCCCCCCCCCCCCC(=O)O)C(=O)O)C(=O)N[C@@H](CC(C)C)C(=O)N[C@H](C(=O)N[C@@H](CCCNC(=N)N)C(=O)N[C@@H](CCCNC(=N)N)C(=O)N[C@@H](CCCNC(=N)N)C(=O)N[C@@H](CCCNC(=N)N)C(=O)N[C@@H](CCCNC(=N)N)C(=O)N[C@@H](CCCNC(=N)N)C(=O)N[C@@H](CCCNC(=N)N)C(=O)N[C@@H](CCCNC(=N)N)C(=O)O)C(C)C [Example 35] (H-H[Aib]EGTFTSDVSSYKEEQAVREFIAK([AEEA-AEEA-γGlu-C18 diacid])LVRRRRRRRR-OH)
EC50 [1]: 800 to 1500 nM | EC50 [2]: 0.74 nM
